In patent US20080214606A1, “Methods for the Identification and Use of Compounds Suitable for the Treatment of Drug Resistant Cancer Cells” (The Government of the United States of America as …, priority 2004, published 2008):

target: T1, ABCB11 (Homo sapiens, UniProt O95342); assay: Correlation of ABCB11 expression with drug sensitivity across the NCI-60; format: cell-based; details: Pearson correlation of ABCB11 expression with sensitivity of the 60 cell lines; 1429 compounds; inverse, p < 0.0001
T1 construct: profiled in 60 diverse cancer cell lines (the NCI-60) using real-time RT-PCR; endogenous in cells; host or cells: NCI-60 human cancer cell lines
T1 sequence (O95342 whole entry): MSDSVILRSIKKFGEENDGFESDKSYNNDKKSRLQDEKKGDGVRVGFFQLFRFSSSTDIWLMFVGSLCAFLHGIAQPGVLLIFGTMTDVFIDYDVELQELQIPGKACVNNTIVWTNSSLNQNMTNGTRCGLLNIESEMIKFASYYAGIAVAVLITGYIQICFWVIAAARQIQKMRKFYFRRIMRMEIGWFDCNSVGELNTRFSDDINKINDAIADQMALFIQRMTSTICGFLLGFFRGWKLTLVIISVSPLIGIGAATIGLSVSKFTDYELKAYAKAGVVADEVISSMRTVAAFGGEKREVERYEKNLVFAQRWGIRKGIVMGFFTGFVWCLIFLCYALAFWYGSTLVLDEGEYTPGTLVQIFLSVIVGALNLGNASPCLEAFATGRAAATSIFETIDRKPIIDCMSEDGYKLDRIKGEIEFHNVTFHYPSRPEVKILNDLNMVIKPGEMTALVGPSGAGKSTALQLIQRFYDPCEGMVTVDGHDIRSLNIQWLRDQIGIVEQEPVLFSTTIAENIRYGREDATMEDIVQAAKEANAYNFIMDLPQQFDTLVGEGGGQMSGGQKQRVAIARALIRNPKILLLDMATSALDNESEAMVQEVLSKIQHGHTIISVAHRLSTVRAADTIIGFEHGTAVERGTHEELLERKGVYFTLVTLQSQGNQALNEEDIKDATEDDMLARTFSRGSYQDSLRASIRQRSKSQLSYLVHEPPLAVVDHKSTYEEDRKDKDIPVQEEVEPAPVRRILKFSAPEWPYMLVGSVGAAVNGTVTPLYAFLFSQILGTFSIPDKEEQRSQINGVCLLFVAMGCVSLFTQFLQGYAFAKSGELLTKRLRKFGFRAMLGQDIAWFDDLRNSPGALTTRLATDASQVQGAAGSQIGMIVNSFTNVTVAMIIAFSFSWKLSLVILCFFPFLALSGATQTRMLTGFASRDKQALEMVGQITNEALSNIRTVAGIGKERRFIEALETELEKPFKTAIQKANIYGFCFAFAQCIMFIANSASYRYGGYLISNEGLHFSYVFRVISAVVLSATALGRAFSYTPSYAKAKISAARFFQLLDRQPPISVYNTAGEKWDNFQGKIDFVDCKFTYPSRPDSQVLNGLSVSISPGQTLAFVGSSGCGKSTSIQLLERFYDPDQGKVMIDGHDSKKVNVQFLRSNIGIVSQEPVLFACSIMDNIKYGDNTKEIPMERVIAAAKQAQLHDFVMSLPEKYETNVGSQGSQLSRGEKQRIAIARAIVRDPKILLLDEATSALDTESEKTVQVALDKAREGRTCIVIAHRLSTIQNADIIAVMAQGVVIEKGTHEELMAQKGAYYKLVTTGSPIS
Method: (§1) Expression levels are measured by real-time quantitative RT-PCR using the LightCycler RNA Amplification SYBR Green kit and a LightCycler machine (Roche Biochemicals, Indianapolis, Ind.). […] When possible, the amplicons are designed to encompass exon-intron boundaries to avoid amplification of genomic DNA. Since the Syber Green assay detects accumulation of double stranded DNA, primers are selected (from a battery consisting of about 200 primers) that amplified a single product of the correct size.
(§2) RT-PCR is carried out on 150 ng total RNA, in the presence of 250 nM specific primers. Following reverse transcription (20 min at 50° C.), the PCR reaction consists of 45 cycles of denaturation (15 sec at 95° C.), annealing (30 sec at 58° C.), and elongation (30 sec at 72° C.). No-template (water) reaction mixtures are prepared as negative controls.
(§3) During PCR amplification, fluorescence emission is measured and recorded in real time by the LightCycler. Crossing point values are calculated, using the LightCycler software package, by the Fit Points analysis method, with baseline fluorescence set at 1. The SyberGreen assay measures accumulation of double-stranded products, and the appearance of primer dimers limits quantitation at high cycle numbers. The specificity of amplified products is verified by melting-curve analysis and agarose gel electrophoresis (not shown). The raw results are expressed as number of cycles to reach the crossing point. If the desired product is not detected, the corresponding value is adjusted to crossing points indicating no expression. To assess the contribution of experimental artifacts, selected cell lines are assessed in replicate.
(§4) The two are combined to form a joint dataset that includes 1429 compounds.
(§5) In the Benjamini-Hochberg procedure the p-values are computed in the standard way by permutation, assuming that all distributions are exchangeable: the number of values in the permuted data with correlations over a threshold, divided by the number of compounds and by the number of permutations. In this analysis, the False Discovery Rate (q-value) at which each compound would be declared was calculated using the step-up procedure for positively correlated test statistics (again true because all correlations being compared are computed against the same ABC gene): in this procedure the first q-value for the largest correlation is the Bonferroni-corrected p-value for that gene; then further q-values are calculated as qj=max(pj*1429/j, qj-1). This procedure limits the expected proportion of false positives in the list 1, . . . , j to at most qj.

Question: With `CC1=CC(=O)C(C)=CC1=O` [NSC 15309] as the compound, how does the Correlation read?
Answer: −0.4683

Question: `C=CCn1c2ccccc2c2c(C)c3cnccc3c(C)c21` [NSC 150834] was tested. Which Correlation did it give?
Answer: −0.5267

Question: With `CC1(C)C[C@]23[C@@H]4COC(=O)[C@H]2CC[C@H]1[C@@H]3CC4=O` [NSC 284437] as the compound, how does the Correlation read?
Answer: −0.5273

Question: For `O=C1C(CO)=C[C@H](O)[C@H]2O[C@@H]12` [NSC 326233], which Correlation is on record?
Answer: −0.4430

Question: With `Cc1c2ccnc(C(N)=O)c2c(C)c2c1[nH]c1ccccc12.Cl` [NSC 335142] as the compound, how does the Correlation read?
Answer: −0.4214

target: T2, ABCB5 (Homo sapiens, UniProt Q2M3G0); assay: Correlation of ABCB5 expression with drug sensitivity across the NCI-60; format: cell-based; details: Pearson correlation of ABCB5 expression with sensitivity of the 60 cell lines; 1429 compounds; inverse, p < 0.0001
T2 construct: profiled in 60 diverse cancer cell lines (the NCI-60) using real-time RT-PCR; endogenous in cells; host or cells: NCI-60 human cancer cell lines
T2 sequence (Q2M3G0 1-1257): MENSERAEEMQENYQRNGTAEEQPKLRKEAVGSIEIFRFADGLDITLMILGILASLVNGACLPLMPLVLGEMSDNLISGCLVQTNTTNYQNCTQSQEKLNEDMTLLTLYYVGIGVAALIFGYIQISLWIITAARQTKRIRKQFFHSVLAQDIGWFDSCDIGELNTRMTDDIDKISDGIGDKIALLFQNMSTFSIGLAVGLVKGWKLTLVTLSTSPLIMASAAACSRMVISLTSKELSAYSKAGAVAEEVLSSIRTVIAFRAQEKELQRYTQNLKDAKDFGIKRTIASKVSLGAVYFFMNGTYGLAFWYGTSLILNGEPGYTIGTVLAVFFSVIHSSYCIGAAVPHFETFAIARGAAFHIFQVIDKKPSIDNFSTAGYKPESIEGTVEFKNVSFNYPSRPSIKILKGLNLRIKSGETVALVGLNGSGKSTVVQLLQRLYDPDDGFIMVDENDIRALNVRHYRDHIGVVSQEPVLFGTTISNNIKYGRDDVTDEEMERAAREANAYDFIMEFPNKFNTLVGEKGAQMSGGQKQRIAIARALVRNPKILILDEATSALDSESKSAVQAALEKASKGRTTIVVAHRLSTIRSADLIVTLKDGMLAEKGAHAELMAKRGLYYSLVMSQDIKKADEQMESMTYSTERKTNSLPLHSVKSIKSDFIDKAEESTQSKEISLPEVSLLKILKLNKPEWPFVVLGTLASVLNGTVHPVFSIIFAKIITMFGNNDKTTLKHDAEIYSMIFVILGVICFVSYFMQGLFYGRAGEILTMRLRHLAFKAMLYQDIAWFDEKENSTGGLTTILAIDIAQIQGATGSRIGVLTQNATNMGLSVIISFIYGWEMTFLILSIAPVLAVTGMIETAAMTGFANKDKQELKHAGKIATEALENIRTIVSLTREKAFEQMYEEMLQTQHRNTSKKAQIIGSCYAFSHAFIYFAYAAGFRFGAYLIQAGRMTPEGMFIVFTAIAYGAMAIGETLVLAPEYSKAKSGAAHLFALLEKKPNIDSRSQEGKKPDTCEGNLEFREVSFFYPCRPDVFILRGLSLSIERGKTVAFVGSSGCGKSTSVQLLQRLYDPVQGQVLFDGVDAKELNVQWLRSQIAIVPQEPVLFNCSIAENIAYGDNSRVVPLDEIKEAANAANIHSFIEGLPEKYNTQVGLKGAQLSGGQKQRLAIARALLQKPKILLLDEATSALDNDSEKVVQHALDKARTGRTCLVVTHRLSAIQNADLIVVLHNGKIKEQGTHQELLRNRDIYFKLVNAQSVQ
Method: as §1, §2, §3, §4, §5

Question: For `CN1N=C(N)c2cn([C@@H]3O[C@H](COP(=O)(O)O)[C@@H](O)[C@H]3O)c3ncnc1c23` [NSC 280594], which Correlation is on record?
Answer: −0.3477

Question: Which Correlation does the source give for `OCC1OC(c2scc3c(=S)nc[nH]c23)C(O)C1O` (stereo not shown) [NSC 670036] here?
Answer: −0.4561

Question: With `CC(=O)Oc1ccc(C2(c3ccc(F)cc3)OC(=O)c3ccccc32)c(C)c1` (stereo not shown) [NSC 671456] as the compound, how does the Correlation read?
Answer: −0.3650

Question: How did the Correlation turn out when `CN(C)CC1CCC/C(=C\c2ccc(OC(=O)/C=C/c3ccc(Cl)c(Cl)c3)cc2)C1=O.Cl` (stereo not shown) [NSC 693443] was run?
Answer: −0.3300

Question: `C=C1C(=O)O[C@H]2[C@@H](O)[C@H](C)CCC/C(C)=C/CC[C@@]3(C)O[C@@H]3C[C@@H]12` [NSC 694509] was tested. Which Correlation did it give?
Answer: −0.2924

target: T3, ABCA3 (Homo sapiens, UniProt Q99758); assay: Correlation of ABCA3 expression with drug sensitivity across the NCI-60; format: cell-based; details: Pearson correlation of ABCA3 expression with sensitivity of the 60 cell lines; 1429 compounds; inverse, p < 0.0001
T3 construct: profiled in 60 diverse cancer cell lines (the NCI-60) using real-time RT-PCR; endogenous in cells; host or cells: NCI-60 human cancer cell lines
Method: as §1, §2, §3, §4
(§6) To determine quantitatively how well the 47 genes cluster the cell lines by their tissues of origin, a statistical method is employed wherein the kappa statistic is used to indicate how well the observed clusters correspond to the nine tissue-of-origin classifications. […] To control the overall false type 1 error rate, both a step-down procedure (Westfall and Young, 1993, Resampling-Based Multiple Testing: Examples and Methods for p-value Adjustment (New York: Wiley)) and a step-up procedure (Reiner et al., 2003, Bioinformatics 19:368-375) were employed to adjust for multiple testing of all 47 genes simultaneously. In the Benjamini-Hochberg procedure the p-values are computed in the standard way by permutation, assuming that all distributions are exchangeable: the number of values in the permuted data with correlations over a threshold, divided by the number of compounds and by the number of permutations. In this analysis, the False Discovery Rate (q-value) at which each compound would be declared was calculated using the step-up procedure for positively correlated test statistics (again true because all correlations being compared are computed against the same ABC gene): in this procedure the first q-value for the largest correlation is the Bonferroni-corrected p-value for that gene; then further q-values are calculated as qj=max(pj*1429/j, qj-1). This procedure limits the expected proportion of false positives in the list 1, . . . , j to at most qj.

Question: `CC[C@]1(O)C[C@@H]2CN(CCc3c([nH]c4ccccc34)[C@@](C(=O)OC)(c3cc4c(cc3OC)N(C)[C@H]3[C@@](O)(C(=O)OC)[C@H](OC(C)=O)[C@]5(CC)C=CCN6CC[C@]43[C@@H]65)C2)C1.O=S(=O)(O)O` [NSC 49842] was tested. Which Correlation did it give?
Answer: −0.3678

Question: How did the Correlation turn out when `COc1cc(C(=O)N[C@H]2CCc3cc(OC)c(OC)c(OC)c3-c3ccc(OC)c(=O)cc32)cc(OC)c1OC` [NSC 355256] was run?
Answer: −0.3769

Question: Which Correlation does the source give for `COc1cc2c(c(OC(C)=O)c1OC(C)=O)-c1ccc(SC)c(=O)cc1C(NC(C)=O)CC2` (stereo not shown) [NSC 374979] here?
Answer: −0.4573

Question: Which Correlation does the source give for `CC(=O)O[C@@]12CO[C@@H]1CC(O)[C@@]1(C)C(=O)[C@H](O)C3=C(C)C(O)C[C@@](O)(C(OC(=O)c4ccccc4)C12)C3(C)C` (stereo partly shown) [NSC 656178] here?
Answer: −0.4318

Question: `O=C1C=C(N2CCN(c3ccccn3)CC2)C(=O)c2c(O)ccc(O)c21` [NSC 658142] was tested. Which Correlation did it give?
Answer: −0.4017

Question: How did the Correlation turn out when `CC(=O)O[C@H]1C(=O)[C@@]2(C)[C@H]([C@H](OC(=O)c3ccco3)[C@]3(O)C[C@H](OC(=O)[C@H](O)[C@@H](NC(=O)c4ccccc4)c4ccccc4)C(C)=C1C3(C)C)[C@]1(OC(C)=O)CO[C@@H]1C[C@@H]2O` [NSC 673187] was run?
Answer: −0.3896

target: T4, ABCC7 (Homo sapiens, UniProt P13569); assay: Correlation of ABCC7 expression with drug sensitivity across the NCI-60; format: cell-based; details: Pearson correlation of ABCC7 expression with sensitivity of the 60 cell lines; 1429 compounds; inverse, p < 0.0001
T4 construct: profiled in 60 diverse cancer cell lines (the NCI-60) using real-time RT-PCR; endogenous in cells; host or cells: NCI-60 human cancer cell lines
T4 sequence (P13569 whole entry): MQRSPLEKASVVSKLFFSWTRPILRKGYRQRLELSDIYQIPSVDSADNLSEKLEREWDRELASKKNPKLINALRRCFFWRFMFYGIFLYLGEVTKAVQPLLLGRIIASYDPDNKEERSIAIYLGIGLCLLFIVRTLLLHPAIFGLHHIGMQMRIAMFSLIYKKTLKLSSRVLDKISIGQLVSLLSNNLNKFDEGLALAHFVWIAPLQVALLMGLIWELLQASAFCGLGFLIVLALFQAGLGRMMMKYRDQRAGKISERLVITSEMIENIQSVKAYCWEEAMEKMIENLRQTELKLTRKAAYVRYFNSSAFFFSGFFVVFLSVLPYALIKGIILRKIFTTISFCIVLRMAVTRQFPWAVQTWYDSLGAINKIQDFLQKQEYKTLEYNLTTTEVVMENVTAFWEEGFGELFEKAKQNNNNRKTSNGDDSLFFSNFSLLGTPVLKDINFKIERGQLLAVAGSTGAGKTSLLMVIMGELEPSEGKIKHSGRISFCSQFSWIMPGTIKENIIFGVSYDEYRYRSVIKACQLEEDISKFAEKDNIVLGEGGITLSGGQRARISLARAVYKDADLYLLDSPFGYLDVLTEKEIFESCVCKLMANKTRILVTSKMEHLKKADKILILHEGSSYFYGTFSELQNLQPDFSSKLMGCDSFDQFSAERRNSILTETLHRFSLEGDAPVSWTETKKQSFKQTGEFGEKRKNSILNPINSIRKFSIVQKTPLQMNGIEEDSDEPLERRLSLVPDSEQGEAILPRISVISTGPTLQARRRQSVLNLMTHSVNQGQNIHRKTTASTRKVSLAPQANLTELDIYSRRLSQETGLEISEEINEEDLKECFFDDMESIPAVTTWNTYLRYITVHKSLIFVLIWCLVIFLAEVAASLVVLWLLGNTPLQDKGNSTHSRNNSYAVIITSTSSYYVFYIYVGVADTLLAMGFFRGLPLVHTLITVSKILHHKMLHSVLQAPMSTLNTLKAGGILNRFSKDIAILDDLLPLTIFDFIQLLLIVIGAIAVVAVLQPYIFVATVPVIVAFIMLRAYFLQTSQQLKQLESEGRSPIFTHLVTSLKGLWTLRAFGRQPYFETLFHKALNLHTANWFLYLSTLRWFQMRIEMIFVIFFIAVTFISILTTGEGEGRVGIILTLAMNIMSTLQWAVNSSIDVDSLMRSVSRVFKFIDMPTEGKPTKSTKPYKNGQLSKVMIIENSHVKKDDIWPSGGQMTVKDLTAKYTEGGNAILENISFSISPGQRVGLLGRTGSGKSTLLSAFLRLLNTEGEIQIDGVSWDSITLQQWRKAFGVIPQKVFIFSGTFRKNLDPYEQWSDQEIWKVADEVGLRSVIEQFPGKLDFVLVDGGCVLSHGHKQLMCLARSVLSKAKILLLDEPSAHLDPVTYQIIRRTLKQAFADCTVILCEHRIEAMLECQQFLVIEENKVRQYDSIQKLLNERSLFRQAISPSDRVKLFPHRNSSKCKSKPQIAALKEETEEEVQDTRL
Method: as §1, §2, §3, §4, §6

Question: How did the Correlation turn out when `CC12CCC(CC1)C(C)(C)O2` [NSC 6171] was run?
Answer: −0.4552

Question: For `Cc1c2ccnc(-c3ccccc3)c2cc2c1[nH]c1ccccc12` [NSC 86715], which Correlation is on record?
Answer: −0.5696

Question: Which Correlation does the source give for `COc1ccc(O)c2c(=O)c3c(OC)cc4c(c3oc12)[C@@H]1C=CO[C@@H]1O4` [NSC 178249] here?
Answer: −0.5603

Question: With `CC(C)(C)c1nc2c(o1)C(=Nc1ccc(F)cc1)c1ccccc1C2=O` [NSC 626030] as the compound, how does the Correlation read?
Answer: −0.5025

Question: `COc1cc2cc[n+]3c(c2cc1OC)C(=O)c1ccccc1-3` [NSC 627787] was tested. Which Correlation did it give?
Answer: −0.5471

target: ABCB1 (Homo sapiens, UniProt P08183); assay: Correlation of ABCB1 expression with drug sensitivity across the NCI-60; details: not given
Method in brief: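 SYBR Green real-time RT-PCR on 150 ng total RNA with 250 nM primers: RT 20 min at 50 °C, then 45 cycles; expression taken as crossing-point cycle number. Correlated with drug sensitivity of 1429 compounds across the cell panel; permutation p-values with step-down and step-up (FDR q-value) multiple-testing correction.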

Chain of ABCB1 (P08183 whole entry): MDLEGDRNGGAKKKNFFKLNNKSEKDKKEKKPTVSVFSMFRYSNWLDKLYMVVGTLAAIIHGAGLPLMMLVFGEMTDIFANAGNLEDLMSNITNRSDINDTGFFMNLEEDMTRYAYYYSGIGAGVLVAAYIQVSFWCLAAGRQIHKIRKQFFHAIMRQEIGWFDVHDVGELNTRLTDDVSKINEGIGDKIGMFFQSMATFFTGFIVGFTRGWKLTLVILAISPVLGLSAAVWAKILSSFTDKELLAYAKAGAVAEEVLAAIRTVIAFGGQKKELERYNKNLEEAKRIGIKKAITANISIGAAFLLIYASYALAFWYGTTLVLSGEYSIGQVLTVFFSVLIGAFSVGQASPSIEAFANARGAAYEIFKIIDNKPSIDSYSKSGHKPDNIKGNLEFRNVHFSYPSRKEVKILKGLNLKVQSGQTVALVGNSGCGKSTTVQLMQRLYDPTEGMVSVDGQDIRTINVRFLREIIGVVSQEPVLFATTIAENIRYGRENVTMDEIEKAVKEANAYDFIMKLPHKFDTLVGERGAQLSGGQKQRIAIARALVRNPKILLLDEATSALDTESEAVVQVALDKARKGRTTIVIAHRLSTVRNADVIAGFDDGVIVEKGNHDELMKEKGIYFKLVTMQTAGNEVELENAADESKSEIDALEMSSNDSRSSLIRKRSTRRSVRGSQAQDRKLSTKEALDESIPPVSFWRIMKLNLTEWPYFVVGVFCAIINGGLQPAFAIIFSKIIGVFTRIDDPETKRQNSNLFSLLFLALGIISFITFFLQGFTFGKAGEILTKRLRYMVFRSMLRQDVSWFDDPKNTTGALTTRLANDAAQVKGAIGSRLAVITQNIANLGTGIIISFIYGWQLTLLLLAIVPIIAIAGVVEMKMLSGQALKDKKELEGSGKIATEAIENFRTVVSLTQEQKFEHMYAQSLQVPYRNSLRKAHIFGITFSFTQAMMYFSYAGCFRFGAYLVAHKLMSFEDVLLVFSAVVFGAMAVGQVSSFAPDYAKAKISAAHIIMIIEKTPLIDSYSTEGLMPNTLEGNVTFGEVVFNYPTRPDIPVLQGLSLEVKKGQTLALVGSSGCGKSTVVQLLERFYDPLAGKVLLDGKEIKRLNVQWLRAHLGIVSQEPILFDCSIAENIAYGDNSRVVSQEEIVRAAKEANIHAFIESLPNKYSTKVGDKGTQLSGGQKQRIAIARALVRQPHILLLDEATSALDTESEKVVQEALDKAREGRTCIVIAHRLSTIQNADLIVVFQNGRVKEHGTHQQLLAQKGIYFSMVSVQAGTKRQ

Question: How did the “Correlation of antiproliferative activity with ABCB1 expression” value turn out when `Cc1c2ccnc(-c3ccccc3)c2cc2c1[nH]c1ccccc12` [NSC 86715] was run?
Answer: 0.5323

Question: Which “Pearson's Correlation Coeff” value does the source give for `CN(C)CC1CCC/C(=C\c2ccc(OC(=O)/C=C/c3ccc(Cl)c(Cl)c3)cc2)C1=O.Cl` (stereo not shown) [NSC 693443] here?
Answer: 0.1842

Question: How did the “Pearson's Correlation Coeff” value turn out when `C=C1C(=O)O[C@H]2[C@@H](O)[C@H](C)CCC/C(C)=C/CC[C@@]3(C)O[C@@H]3C[C@@H]12` [NSC 694509] was run?
Answer: 0.2823

target: T5, ABCC3 (Homo sapiens, UniProt O15438); assay: Correlation of ABCC3 expression with drug sensitivity across the NCI-60; format: cell-based; details: Pearson correlation of ABCC3 expression with sensitivity of the 60 cell lines; 1429 compounds; inverse, p < 0.0001
T5 construct: profiled in 60 diverse cancer cell lines (the NCI-60) using real-time RT-PCR; endogenous in cells; host or cells: NCI-60 human cancer cell lines
Method: as §1, §2, §3, §4, §6

Question: How did the Correlation turn out when `O=C1C=C(N2CCN(c3ccccn3)CC2)C(=O)c2c(O)ccc(O)c21` [NSC 658142] was run?
Answer: −0.4982
